Patent US20240010998A1, “FLAVONE 4'-O-METHYLTRANSFERASE GENE AND USE FOR SAME” (SUNTORY HOLDINGS LIMITED, priority 2020, published 2024)

How the values were obtained:
[1] = Simulation of flavone C-glycoside copigment effect with anthocyanin (malvin): absorption spectrum; assay type: physicochemical; settings: for Absorption maximum of malvin solution upon addition of flavone C-glycoside (λmax): flavone C-glycoside added at 10-equivalent molar concentration to 0.5 mM malvin
Method: An anthocyanin (malvin) and flavone C-glycoside were prepared to simulate the copigment effect of the flavone C-glycoside on malvin. The malvin (malvidin 3,5-diglucoside) and flavone C-glycosides (isovitexin (apigenin 6-C-glucoside), isoorientin (luteolin 6-C-glucoside) and swertisin (genkwanin 6-C-glucoside) used in the experiments were purchased from Nacalai Tesque, Inc. Embigenin (7,4′-dimethoxyisovitexin) was prepared by artificial organic synthesis from isovitexin. Each flavone C-glycoside (isovitexin, isoorientin, swertisin or embigenin) was added to the malvin at 10-equivalent molar concentration in a buffering solution at pH 5.0, and the absorption spectrum was measured. The malvin concentration was 0.5 mM.

[2] = tested on: DN144 (IjFn-4′OMT); experiment: Enzyme activity measurement with crude protein solution extract from E. coli expressing DN144; assay type: biochemical, fringed iris (Iris japonica); settings: flavone substrate; for Produced compound: SAM, 30 minutes at 30° C., HPLC detection at 330 nm
Method: With DN144 as a candidate protein having activity of transferring a methyl group to the 4′-position hydroxyl group of flavone C-glycoside, and using pET15b (Novagen), an E. coli expression vector pSPB7942 containing the full-length of DN144 was constructed according to the manufacturer's recommended protocol.
Vector pSPB7942 was introduced into E. coli BL21(DE3) (New England Biolabs Japan Inc) by the manufacturer's recommended protocol, to obtain E. coli transformants. The E. coli were cultured using an Overnight Express Autoinduction System 1 (Novagen), according to the manufacturer's recommended protocol. The E. coli transformants were cultured at 37° C. (approximately 4 hours) with 2 mL of prepared culture solution, to an OD600 value of 0.5. The E. coli solution was added as a preculturing solution to 50 mL of culture solution, and main culturing was carried out for two nights at 16° C. The E. coli solution cultured for two nights was centrifuged (3,000 rpm, 4° C., 15 minutes), and the collected cells were suspended in sonic buffer (composition: 40 mM KPB (pH7.5), 1 mM dithiothreitol. 50 μM amidinophenylmethanesulfonyl fluoride hydrochloride, 500 μM ethylenediaminetetraacetic acid. 2 mM MgCl2, 1 μM S-adenosylmethionine (SAM)). A 5 mL portion of sonic buffer was added for each 1 g of E. coli. The suspended E. coli cells were crushed by ultrasonic treatment and then centrifuged (15,000 rpm, 4° C., 10 minutes), and the supernatant was recovered. The supernatant was used as a crude protein solution extract from E. coli expressing DN144. A TOMY MX-307 (rotor: AR015-24) was used for centrifugal separation (Tomy Seiko Co., Ltd.).
The substrates used for activity measurement were apigenin, apigenin 7-glucoside, isovitexin 2″-rhamnoside, saponarin (isovitexin 4′-glucoside), swertisin, luteolin, luteolin 7-glucoside, isoorientin, swertiajapanin (isoorientin 7-methyl ether), delphinidin 3-glucoside, delphinidin 3,5-diglucoside and malvidin 3,5-diglucoside. A mixture of 8 μL of each 1 mM substrate (50% acetonitrile aqueous solution containing 0.1% TFA), 20 μL of 10 mM SAM, 10 μL of 1 M KPB (pH 7.5) and 20 μL of 10 mM MgCl2 adjusted to 58 μL was kept at 30° C. for 10 minutes, and then 42 μL of crude protein solution extract from DN144-expressing E. coli was added for enzyme reaction (30 minutes at 30° C.). Next, 100 μL of stop buffer (aqueous 90% acetonitrile solution containing TFA) was added to stop the enzyme reaction, and the enzyme reaction solution was analyzed by high-performance liquid chromatography (LC-2030C by Shimadzu Corp.). Detection was at 330 nm using a Shimadzu PDA SPD-M20A as the detector. The column used as a Shim-Pack FC-ODS 150 mm*4.6 min (Shimadzu GLC). Elution was performed using solution A (0.1% TFA aqueous solution) and solution B (aqueous 90% acetonitrile solution containing 0.1% TFA). The elution was with a 20-minute linear concentration Gradient from a 9:1 mixture to a 8:2 mixture, a 15-minute linear concentration gradient from a 8:2. mixture to a 2:8 mixture and a 5-minute linear concentration gradient from a 2:8 mixture to a 0:10 mixture, followed by elution with a 0:10 mixture for 1 minute. The flow rate was 0.6 mL/min. As a control, the same experiment was carried out using a crude protein solution extract from E. coli in which pET15b vector without the insert had been introduced. As a result, compounds were detected in the enzyme reaction solutions obtained by reacting the 10 different flavones with the crude protein solution extract from the DN144-expressing E. coli. […] With reaction of the 3 different anthocyanins, no peaks were detected other than for the substrates in the enzyme reaction solution. When enzyme reaction was conducted using an anthocyanin substrate, the enzyme reaction conditions were 30° C., 15 minutes, and an aqueous 90% acetonitrile solution containing 0.1% TFA and 0.24 N hydrochloric acid was used as the stop buffer. […]

COc1ccc(-c2cc(=O)c3c(O)c([C@@H]4O[C@H](CO)[C@@H](O)[C@H](O)[C@H]4O)c(OC)cc3o2)cc1 [Embigenin, 7,4′-dimethoxyisovitexin]
Copigment effect with respect to malvin (absorbance increase, shift of absorption maximum toward long wavelength end) ([1]; 10-equivalent flavone C-glycoside, 0.5 mM malvin, pH 5.0): highest copigment effect
Absorption maximum of malvin solution upon addition of flavone C-glycoside (λmax) ([1]; buffering solution pH 5.0): 581 nm

O=c1cc(-c2ccc(O)c(O)c2)oc2cc(O)c([C@@H]3O[C@H](CO)[C@@H](O)[C@H](O)[C@H]3O)c(O)c12 [Isoorientin, luteolin 6-C-glucoside]
Methyltransferase activity of DN144 for the substrate [2]: strong methyltransferase activity
Absorption maximum of malvin solution upon addition of flavone C-glycoside (λmax) ([1]; buffering solution pH 5.0): 575 nm

O=c1cc(-c2ccc(O)cc2)oc2cc(O)c([C@@H]3O[C@H](CO)[C@@H](O)[C@H](O)[C@H]3O)c(O)c12 [Isovitexin, apigenin 6-C-glucoside]
Produced compound [2]: Isocytisoside
Produced compound ([2]; listed as isovitexin): conversion to isocytisoside was confirmed
Absorption maximum of malvin solution upon addition of flavone C-glycoside (λmax) ([1]; buffering solution pH 5.0): 578 nm

COc1cc(-c2[o+]c3cc(O)cc(O[C@@H]4O[C@H](CO)[C@@H](O)[C@H](O)[C@H]4O)c3cc2O[C@@H]2O[C@H](CO)[C@@H](O)[C@H](O)[C@H]2O)cc(OC)c1O [Malvin, malvidin 3,5-diglucoside]
Absorption maximum of malvin solution (λmax) ([1]; malvin alone, 0.5 mM, buffering solution pH 5.0): 529 nm

COc1cc2oc(-c3ccc(O)c(O)c3)cc(=O)c2c(O)c1[C@@H]1O[C@H](CO)[C@@H](O)[C@H](O)[C@H]1O [Swertiajaponin, luteolin 7-methyl-6-C-glucoside]
Methyltransferase activity of DN144 for the substrate [2]: strong methyltransferase activity

COc1cc2oc(-c3ccc(O)cc3)cc(=O)c2c(O)c1[C@@H]1O[C@H](CO)[C@@H](O)[C@H](O)[C@H]1O [Swertisin, genkwanin 6-C-glucoside]
Produced compound [2]: Embigenin
Produced compound ([2]; listed as swertisin): conversion to embigenin was confirmed
Absorption maximum of malvin solution upon addition of flavone C-glycoside (λmax) ([1]; buffering solution pH 5.0): 579 nm

isovitexin 2″-rhamnoside
Methyltransferase activity of DN144 for the substrate [2]: strong methyltransferase activity
